Reference: the NIST ThermoML archive (doi:10.1021/je0302304)
± gives the expanded uncertainty stated by the source.

Test: xn = mol fraction of the nth substance listed
Conditions: 101.32 kPa, Liquid

COCCOCCOCCOCCOC [2,5,8,11,14-pentaoxapentadecane] + CCO
mass density [kg/m3]
Conditions | 288.15 K | 298.15 K | 308.15 K | 318.15 K
x1 = 0.0045 | 797.9 ± 0.5 | 789.4 ± 0.5 | 780.7 ± 0.5 | 771.9 ± 0.5
x1 = 0.0085 | 801.4 ± 0.4 | 792.9 ± 0.5 | 784.2 ± 0.5 | 775.3 ± 0.5
x1 = 0.0125 | 804.8 ± 0.4 | 796.3 ± 0.5 | 787.6 ± 0.5 | 778.7 ± 0.5
x1 = 0.0165 | 808.2 ± 0.4 | 799.6 ± 0.5 | 790.9 ± 0.5 | 782 ± 0.5
x1 = 0.0205 | 811.5 ± 0.4 | 802.9 ± 0.4 | 794.2 ± 0.5 | 785.3 ± 0.5
x1 = 0.0305 | 819.5 ± 0.4 | 810.8 ± 0.4 | 802 ± 0.4 | 793.1 ± 0.5
x1 = 0.05 | 833.6 ± 0.4 | 824.9 ± 0.4 | 816.1 ± 0.4 | 807.1 ± 0.4
x1 = 0.1 | 864.1 ± 0.3 | 855.1 ± 0.4 | 846.2 ± 0.4 | 837.1 ± 0.4
x1 = 0.15 | 888 ± 0.3 | 878.9 ± 0.3 | 869.9 ± 0.3 | 860.7 ± 0.4
x1 = 0.2 | 907.3 ± 0.3 | 898.1 ± 0.3 | 889.1 ± 0.3 | 879.9 ± 0.3
x1 = 0.25 | 923.3 ± 0.3 | 914.1 ± 0.3 | 905 ± 0.3 | 895.7 ± 0.3
x1 = 0.3 | 936.6 ± 0.3 | 927.4 ± 0.3 | 918.2 ± 0.3 | 908.9 ± 0.3
x1 = 0.35 | 947.9 ± 0.2 | 938.6 ± 0.3 | 929.5 ± 0.3 | 920.2 ± 0.3
x1 = 0.4 | 957.6 ± 0.2 | 948.3 ± 0.2 | 939.2 ± 0.3 | 929.8 ± 0.3
x1 = 0.45 | 966 ± 0.2 | 956.7 ± 0.2 | 947.5 ± 0.2 | 938.2 ± 0.3
x1 = 0.5 | 973.4 ± 0.2 | 964.1 ± 0.2 | 954.9 ± 0.2 | 945.5 ± 0.3
x1 = 0.55 | 979.9 ± 0.2 | 970.6 ± 0.2 | 961.3 ± 0.2 | 952 ± 0.2
x1 = 0.6 | 985.7 ± 0.2 | 976.3 ± 0.2 | 967.1 ± 0.2 | 957.8 ± 0.2
x1 = 0.6499 | 990.9 ± 0.2 | 981.5 ± 0.2 | 972.3 ± 0.2 | 963 ± 0.2
x1 = 0.7 | 995.6 ± 0.2 | 986.2 ± 0.2 | 977 ± 0.2 | 967.6 ± 0.2
x1 = 0.7498 | 999.8 ± 0.2 | 990.4 ± 0.2 | 981.2 ± 0.2 | 971.9 ± 0.2
x1 = 0.7999 | 1003.6 ± 0.2 | 994.2 ± 0.2 | 985 ± 0.2 | 975.6 ± 0.3
x1 = 0.8499 | 1007 ± 0.2 | 997.7 ± 0.2 | 988.4 ± 0.2 | 979.1 ± 0.3
x1 = 0.8997 | 1010.2 ± 0.3 | 1000.9 ± 0.2 | 991.6 ± 0.3 | 982.4 ± 0.3
x1 = 0.9496 | 1013.2 ± 0.3 | 1003.8 ± 0.3 | 994.6 ± 0.3 | 985.3 ± 0.3
x1 = 1 | 1016 ± 0.3 | 1006.6 ± 0.3 | 997.4 ± 0.3 | 988.1 ± 0.3
